Source: PubChem BioAssay (NCI)
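These data come from cells grown in 96-well plates and exposed to compound for 48 hours at five concentrations. GI50 marks 50% less growth. TGI: total growth inhibition.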

Experiments:
Test in all cases: NCI-60 cell line screen, 48 h
HCC-2998 colon = test system: HCC-2998 colon
SK-MEL-5 melanoma = test system: SK-MEL-5 melanoma
HT29 colon = test system: HT29 colon
OVCAR-5 ovarian = test system: OVCAR-5 ovarian
T-47D breast = test system: T-47D breast
UACC-62 melanoma = test system: UACC-62 melanoma
SN12C renal = test system: SN12C renal
SF-539 CNS = test system: SF-539 CNS
SF-295 CNS = test system: SF-295 CNS
TK-10 renal = test system: TK-10 renal

| Structure (SMILES) | GI50 (HCC-2998 colon) [µM] | TGI (HCC-2998 colon) [µM] | GI50 (SK-MEL-5 melanoma) [µM] | TGI (SK-MEL-5 melanoma) [µM] | GI50 (HT29 colon) [µM] | TGI (HT29 colon) [µM] | GI50 (OVCAR-5 ovarian) [µM] | TGI (OVCAR-5 ovarian) [µM] | GI50 (T-47D breast) [µM] | TGI (T-47D breast) [µM] | GI50 (UACC-62 melanoma) [µM] | TGI (UACC-62 melanoma) [µM] | GI50 (SN12C renal) [µM] | TGI (SN12C renal) [µM] | GI50 (SF-539 CNS) [µM] | TGI (SF-539 CNS) [µM] | GI50 (SF-295 CNS) [µM] | TGI (SF-295 CNS) [µM] | TGI (TK-10 renal) [µM] | GI50 (TK-10 renal) [µM] |
| --- | --- | --- | --- | --- | --- | --- | --- | --- | --- | --- | --- | --- | --- | --- | --- | --- | --- | --- | --- | --- |
| O=C(Nc1cccc(-n2cc(-c3ccncc3)c(-c3cc(O)cc(Cl)c3)n2)c1)c1ccc(N2CCOCC2)c(C(F)(F)F)c1 | 1.82 | 7.95 | 2.33 | 8.49 | 3.03 | 11.3 | 14.8 | 39.6 | 3.81 | > 100 | 1.72 | 9.38 | 6.37 | > 100 | 1.44 | 4.47 | 0.614 | 2.78 | – | – |
| O=C(NC12CC3CCC1CC(C3)C2)[C@@H]1CCCN1C(=O)OCc1ccccc1 (some centres not stated) | – | > 100 | – | – | – | > 100 | – | > 100 | – | – | – | > 100 | – | > 100 | – | > 100 | – | > 100 | > 100 | – |
| O=C1CC(c2ccccc2)Oc2ccccc21 (configuration not stated) | – | > 100 | – | 65.8 | – | 59.7 | – | – | – | > 100 | – | > 100 | – | – | – | 55 | – | > 100 | > 100 | – |
| O=c1c2ccccc2sc2c(CO)ccc(NCCN3CCCCC3)c12 | – | – | – | 3.19 | – | 11.9 | – | 20 | – | 20.6 | – | 15.6 | – | 15.6 | – | 16.2 | – | 17.4 | 12.1 | – |
| COc1cc2oc(-c3ccc(O)cc3)cc(=O)c2c(O)c1C1OC(CO)C(O)C(O)C1O (configuration not stated) | – | > 100 | – | > 100 | – | > 100 | – | > 100 | – | – | – | > 100 | – | > 100 | – | > 100 | – | > 100 | > 100 | – |
| COC(=O)/C=C(/C(=O)OC)C1(C)c2cc(C(=O)OC)c(C(=O)OC)c(N)c2C(=N)N1c1ccccc1 (configuration not stated) | – | 51.6 | – | – | – | 31.7 | – | > 100 | – | – | – | 41.2 | – | 48.4 | – | 48.9 | – | 40.2 | > 100 | – |
| C[C@]12Cc3cn[nH]c3C(=O)C1CC[C@@H]1C2CC[C@@]2(C)C1CC[C@@H]2O (some centres not stated) | – | – | – | > 100 | – | > 100 | – | > 100 | – | – | – | > 100 | – | > 100 | – | > 100 | – | > 100 | > 100 | – |
| COc1cc(CNc2nc3cc(N)cc(N)c3nc2-c2ccccc2)cc(OC)c1 | – | – | 13 | 41.7 | 8.17 | 44.4 | 5.9 | 29.2 | 1.67 | 4.57 | 5.31 | 30.7 | 11.4 | > 100 | 5.29 | 21.4 | 14.2 | 35.1 | 62.3 | 24.6 |
| CCN1C(=S)N(CC)C2C1NC(=S)N2/N=C/C=C/c1ccccc1OC (configuration not stated) | 0.392 | 25.3 | 0.137 | 3.53 | 0.33 | 14.4 | 0.442 | 35.6 | – | – | 0.33 | 25.6 | 0.67 | 24.8 | 0.194 | 0.541 | 0.113 | 9.18 | 98.9 | 7.69 |
| O=C1/C(=C\c2ccccc2)CN(C(=O)CCN2CCCCC2)C/C1=C/c1ccccc1 | – | 2.81 | – | 3.3 | – | 2.03 | – | 3.96 | – | – | – | 3.08 | – | 2.48 | – | 5.52 | – | 3.16 | 10.9 | – |
| N#C/C(=C\c1cc(OCc2ccccc2)c(OCc2ccccc2)cn1)C(N)=O | – | > 100 | – | > 100 | – | > 100 | – | > 100 | – | – | – | > 100 | – | > 100 | – | > 100 | – | > 100 | > 100 | – |
| O=[N+]([O-])c1ccccc1C1SCc2nc3ccccc3n21 (configuration not stated) | – | – | – | 48.3 | – | > 100 | – | – | – | – | – | > 100 | – | > 100 | – | > 100 | – | > 100 | > 100 | – |
| O=C(NCCNCCO)c1ccc2c(c1)oc1cc3ccccc3c(=O)n12 | – | – | 12.6 | 32.1 | 29.4 | > 50 | – | – | 24.7 | > 50 | > 50 | > 50 | 29.1 | > 50 | 16.2 | 33.2 | > 50 | > 50 | 19.6 | 1.48 |
| COC(=O)C1C(C(=O)OC)C2C(=O)C3C(C(=O)OC)C(C(=O)OC)C3C(=O)C12 (configuration not stated) | – | > 100 | – | – | – | > 100 | – | > 100 | – | – | – | – | – | > 100 | – | > 100 | – | > 100 | > 100 | – |
| COc1cc(Nc2cnc3ccc(C(F)(F)F)cc3n2)cc(OC)c1OC | – | > 100 | – | – | – | > 100 | – | > 100 | – | – | – | – | – | > 100 | – | > 100 | – | 91.2 | > 100 | – |
| CC1=NN(C(=O)Cc2ccccc2)C(=O)/C1=C\c1ccc(O)cc1 | – | > 100 | – | > 100 | – | > 100 | – | > 100 | – | – | – | > 100 | – | > 100 | – | > 100 | – | > 100 | > 100 | – |
| COC(=O)CCC(NC(=S)N/N=C/c1cccs1)C(=O)OC (configuration not stated) | – | > 100 | – | > 100 | – | > 100 | – | > 100 | – | – | – | > 100 | – | > 100 | – | > 100 | – | > 100 | > 100 | – |
| O=C1[C@@H]2C(c3c(Cl)cccc3Cl)=NO[C@@H]2C(=O)N1c1ccc(Cc2ccc(N3C(=O)[C@H]4C(c5c(Cl)cccc5Cl)=NO[C@H]4C3=O)cc2)cc1 | – | > 100 | – | > 100 | – | > 100 | – | > 100 | – | – | – | > 100 | – | > 100 | – | > 100 | – | > 100 | > 100 | – |
| COc1ccc(CNc2cnc3ccc(N)cc3n2)cc1 | – | > 100 | – | > 100 | – | > 100 | – | > 100 | – | – | – | – | – | > 100 | – | > 100 | – | > 100 | > 100 | – |
| Cc1cc([N+](=O)[O-])c(C)c2c1[nH]c1ccc(Cl)cc12 | – | > 100 | – | > 100 | – | > 100 | – | > 100 | – | – | – | – | – | > 100 | – | > 100 | – | > 100 | > 100 | – |
